Data as given in publication PMC3578785, “Improved BM212 MmpL3 Inhibitor Analogue Shows Efficacy in Acute Murine Model of Tuberculosis Infection” (PLoS ONE, 2013).
In brackets after ≈: the same amount, converted by molar mass. Read-outs that look alike come from different tables or passages of the source.

Columns and labels:
M. tuberculosis H37Rv = experiment: microbe, parasite or virus in culture; type: cell-based; settings: Mycobacterium tuberculosis, aerobic conditions
in vitro [1] = type: in vitro ADME, mouse; settings: pH 7.4; for Cli mouse: 0.5 µM; for half-life: mouse microsomes, read-out: t1/2 in mouse microsomes
Protocol: (§1) Protocol S6. Microsomal fraction stability experimental procedure.
(§2) Pooled mouse and human liver microsomes are purchased from Xenotech. Microsomes (final protein concentration 0.5 mg/mL, MgCl2 (final concentration = 5 mM) and test compound (final substrate concentration = 0.5 µM; final DMSO concentration = 0.5%) in 0.1M phosphate buffer pH 7.4 were pre-incubated at 37°C prior to the addition of NADPH (final concentration = 1 mM) to initiate the reaction. The final incubation volume was 600 µL. A control incubation was included for each compound tested where 0.1 M phosphate buffer pH 7.4 is added instead of NADPH (minus NADPH). One control compound was included with each species. All incubations were performed singularly for each test compound. Each compound was incubated for 30 minutes and samples (90 µL) of incubate were taken at 0, 5, 15, 20 and 30 min. The control (minus NADPH) was sampled at 30 min only. The reactions were stopped by the addition of sample to 200 µL Acetonitrile:Methanol 3:1 containing internal standard. The terminated samples were centrifuged at 2.500 rpm for 20 min at 4°C to precipitate the protein.
(§3) Quantitative Analysis: following protein precipitation, the samples were analyzed using specific […]
(§4) Data Analysis: from a plot of ln peak area ratio (compound peak area/internal standard peak area) against time, the gradient of the line was determined. Subsequently, half-life and intrinsic clearance were calculated using the equations below:
(§5) Elimination rate constant (k) = (- gradient)
(§6) Half life (t1/2) (min) = […]
(§7) Intrinsic Clearance (CLint) (mL/min/g protein) = […] where V=Incubation volume mL/g microsomal protein.

in vitro [2] = settings: plasma, pH 7.4
[3] = target: human serum albumin (HSA) (Homo sapiens, UniProt P02768); type: in vitro ADME; settings: human, pH 7.4
Chain of human serum albumin (HSA) (P02768 25-609): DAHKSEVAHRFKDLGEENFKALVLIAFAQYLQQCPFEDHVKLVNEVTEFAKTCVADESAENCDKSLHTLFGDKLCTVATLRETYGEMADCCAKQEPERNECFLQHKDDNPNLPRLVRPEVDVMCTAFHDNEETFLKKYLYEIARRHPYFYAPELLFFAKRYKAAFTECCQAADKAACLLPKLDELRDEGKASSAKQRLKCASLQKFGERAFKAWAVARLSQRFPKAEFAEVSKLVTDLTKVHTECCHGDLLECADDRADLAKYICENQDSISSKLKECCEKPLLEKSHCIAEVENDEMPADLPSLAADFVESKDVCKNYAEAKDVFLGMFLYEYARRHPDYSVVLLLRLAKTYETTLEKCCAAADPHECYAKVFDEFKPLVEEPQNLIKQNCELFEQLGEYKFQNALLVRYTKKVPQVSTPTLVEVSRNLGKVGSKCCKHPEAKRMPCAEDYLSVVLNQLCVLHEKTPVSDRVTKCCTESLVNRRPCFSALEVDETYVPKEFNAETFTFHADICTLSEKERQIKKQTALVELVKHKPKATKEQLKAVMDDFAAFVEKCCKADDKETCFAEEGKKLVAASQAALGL
Protocol: Standard physical chemical property determination methods were used. Please see the Supporting Information for details.
Protocol S4. Determination of compounds binding to human serum albumin (HSA).
The determination of compounds binding to human serum albumin (HSA) was carried out by retention time measurements using immobilized HSA HPLC columns obtained from Chiral Technologies Ltd, France. The column dimensions were 50x3 mm. The mobile phase was 50 mM ammonium acetate buffer pH 7.4 and HPLC grade 2-propanol. HPLC Method: flow rate 1.8 ml/min applying 2.5 min 2-propanol gradient up to 30%. From 2.5 min to 4.5 min the 2-propanol concentration in the mobile phase was kept at 30%. From 4.5 min to 4.6 min, the 2-propanol concentration was decreased to 0% and kept like that until the end of the gradient run which was 6 min. A calibration set of compounds was first analyzed for which plasma protein binding data were available: Warfarin, Nizatidine, Bromazepam, Carbamazepine, Budesonide, Nicardipine, Indomethacine, Piroxicam, Naproxen. The calculation of the HSA binding data expressed as %HSA was carried out as described previously.

HepG2 cells = settings: human, 48 h
in vitro [4] = settings: African green monkey
in vitro [5] = type: in vitro ADME, human; settings: pH 7.4; for Cli human: 0.5 µM; for half-life: human microsomes, read-out: t1/2 in human microsomes
Protocol: as §1, §2, §3, §4, §5, §6, §7

SMILES	chromatographic logD (physchem; pH 2)	chromatographic logD (physchem; pH 7.4)	chromatographic logD (physchem; pH 10.5)	MIC (M. tuberculosis H37Rv)	Cli mouse (in vitro [1])	half-life (in vitro [1])	fraction unbound at 1 µM (in vitro [2])	HSA (%) binding [3]	Tox50, cytotoxicity in HepG2 cells (HepG2 cells)	CC50 at 72 h (in vitro [4])	melting point	Cli human (in vitro [5])	half-life (in vitro [5])
Cc1c(CN2CCN(C)CC2)cc(-c2ccc(Cl)cc2)n1-c1ccc(Cl)cc1 [Compound 1]	0.7	4.51	5.01	5 µM (≈ 2.07 µg/mL)	0.7 ± 0.1 mL/min/g	> 30 min	0.002	98.07%	7.8 µM				
Cc1ccc(-c2cc(CN3CCSCC3)c(C)n2-c2ccc(F)cc2)cc1 [Compound 2]	1.31	4.54	5.08	0.16 to 0.2 µM (≈ 0.0609 to 0.0761 µg/mL)	7.2 ± 0.2 mL/min/g	8.2 min	< 0.001	97.91%	24.01 µM	179 µM			
COc1ccc(-c2cc(CN3CCSCC3)c(C)n2-c2ccc(F)cc2)cc1 [Compound 3]	1.07	3.97	4.62	0.16 to 0.2 µM (≈ 0.0634 to 0.0793 µg/mL)	18.76 mL/min/g	< 5 min	0.004	96.82%		> 302 µM			
CSc1ccc(-c2cc(CN3CCSCC3)c(C)n2-c2ccc(F)cc2)cc1 [Compound 4]	1.33	4.52	5.03	0.16 to 0.2 µM (≈ 0.066 to 0.0825 µg/mL)	7.3 ± 0.1 mL/min/g	10 min	0.007	98.04%		15.2 µM			
Cc1ccc(-c2cc(CN3CCOCC3)c(C)n2-c2ccc(F)cc2)cc1 [Compound 5, 2-Methyl-3-[(morpholin-4-yl)-methyl]-5-[4-(methyl)phenyl]-1-[4-(fluoro)phenyl]-1H-pyrrole]	1.12	3.86	4.26	0.3 µM (≈ 0.109 µg/mL)		20.4 min	0.005	96.72%	20.08 µM	> 351 µM	133 to 135 °C	<0.5 mL/min/g	> 30 min
COc1ccc(-c2cc(CN3CCOCC3)c(C)n2-c2ccc(F)cc2)cc1 [Compound 6, 2-Methyl-3-[(morpholin-4-yl)-methyl]-5-[4-(methoxy)phenyl]-1-[4-(fluoro)phenyl]-1H-pyrrole]	0.93	3.32	3.73	0.6 µM (≈ 0.228 µg/mL)	4.7 ± 0.1 mL/min/g	15.9 min	0.017	95.58%		58.7 µM	169 °C	0.5 ± 0 mL/min/g	> 30 min
CSc1ccc(-c2cc(CN3CCOCC3)c(C)n2-c2ccc(F)cc2)cc1 [Compound 7, 2-Methyl-3-[(morpholin-4-yl)-methyl]-5-[4-(methylthio)phenyl]-1-[4-(fluoro)phenyl]-1H-pyrrole]	1.13	3.82	4.24	0.6 µM (≈ 0.238 µg/mL)	7.30 mL/min/g	9.27 min	0.004	97.00%	32.9 µM	44.3 µM	134 °C	0.56 mL/min/g	> 30 min
CCc1ccc(-c2cc(CN3CCOCC3)c(C)n2-c2ccc(F)cc2)cc1 [Compound 8, 2-Methyl-3-[(morpholin-4-yl)-methyl]-5-[4-(ethyl)phenyl]-1-[4-(fluoro)phenyl]-1H-pyrrole]	1.26	4.21	4.64	0.2 µM (≈ 0.0757 µg/mL)	5.64 mL/min/g	12.5 min	0.006	97.14%	19.5 µM	18.9 µM	107 °C	1.09 mL/min/g	> 30 min
Cc1ccc(-c2cc(CN3CCOCC3)c(C)n2-c2ccc(Cl)cc2)cc1 [Compound 10, 2-Methyl-3-[(morpholin-4-yl)-methyl]-5-[4-(methyl)phenyl]-1-[4-(chloro)phenyl]-1H-pyrrole]	1.3	4.4	4.78	0.6 µM (≈ 0.229 µg/mL)	2.6 ± 0.1 mL/min/g	25.7 min	0.002	97.69%	25 µM	179 µM	130 °C	<0.5 mL/min/g	> 30 min
CCc1ccc(-c2cc(CN3CCOCC3)c(C)n2-c2ccc(Cl)cc2)cc1 [Compound 11, 2-Methyl-3-[(morpholin-4-yl)-methyl]-5-[4-(ethyl)phenyl]-1-[4-(chloro)phenyl]-1H-pyrrole]	1.42	4.77	5.16	0.2 µM (≈ 0.079 µg/mL)	2.83 mL/min/g	25 min	< 0.001	97.74%	8.8 µM	> 256 µM	134 °C	0.52 mL/min/g	> 30 min
CCCc1ccc(-c2cc(CN3CCOCC3)c(C)n2-c2ccc(Cl)cc2)cc1 [Compound 12, 2-Methyl-3-[(morpholin-4-yl)-methyl]-5-[4-(propyl)phenyl]-1-[4-(chloro)phenyl]-1H-pyrrole]	1.61	5.3	5.59	2 µM (≈ 0.818 µg/mL)		> 30 min	< 0.001	98.00%	13.3 µM	> 256 µM	113 °C	<0.5 mL/min/g	> 30 min
Cc1c(CN2CCOCC2)cc(-c2ccc(C(C)C)cc2)n1-c1ccc(Cl)cc1 [Compound 13, 2-Methyl-3-[(morpholin-4-yl)-methyl]-5-[4-(i-propyl)phenyl]-1-[4-(chloro)phenyl]-1H-pyrrole]	1.56	5.13	5.45	0.6 µM (≈ 0.245 µg/mL)		> 30 min	< 0.001	97.94%	10.0 µM	241 µM	135 °C	0.71 mL/min/g	> 30 min
Cc1ccc(-n2c(-c3ccc(Cl)cc3)cc(CN3CCOCC3)c2C)cc1 [Compound 14, 2-Methyl-3-[(morpholin-4-yl)-methyl]-5-[4-(chloro)phenyl]-1-[4-(methyl)phenyl]-1H-pyrrole]	1.28	4.53	4.94	1.3 µM (≈ 0.495 µg/mL)	7.41 mL/min/g	9.69 min	< 0.001	97.62%	26.0 µM	9.31 µM	111 °C	0.57 mL/min/g	> 30 min
CCc1ccc(-n2c(-c3ccc(Cl)cc3)cc(CN3CCOCC3)c2C)cc1 [Compound 15, 2-Methyl-3-[(morpholin-4-yl)-methyl]-5-[4-(chloro)phenyl]-1-[4-(ethyl)phenyl]-1H-pyrrole]	1.54	5.01	5.36	0.6 µM (≈ 0.237 µg/mL)	4.0 ± 0.1 mL/min/g	18.5 min	< 0.001	98.03%	17.8 µM	170 µM	102 °C	0.9 ± 0 mL/min/g	> 30 min
